Reference: patent EP3034610A1, “NOVEL TERPENOID COMPOUND AND METHOD FOR PRODUCING SAME” (The Kitasato Institute, priority 2013, dated 2015)

Legend:
Format in all cases: cell-based
Conditions in all cases: 72 h treatment, OD 540 nm, tested 5-100 µg/mL
[1] = tested on: SKOV (ovarian cancer); assay: Cytotoxicity, MTT assay (viability), SKOV
[2] = tested on: Jurkat (T-cell lymphoblastic leukemia); assay: Cytotoxicity, MTT assay (viability), Jurkat
[3] = tested on: Mycobacterium smegmatis; assay: Cytotoxicity, MTT assay (viability), Mycobacterium smegmatis

Row | Compound | IC50 [1] | IC50 [2] | IC50 [3]
1 | trimethyl-methylenehexadecahydropyrene | not active | not active | IC50 = 50.08 µg/ml
2 | C=C(CCC=C(C)C)[C@@H]1CC[C@@]2(C)CCCC(C)=C2C1 [clavulatriene A] | not active | IC50 = 5.63 µg/ml. | not active
3 | tetramethylhexadecahydropyrenol | IC50 = 35.38 µ g/ml | IC50 = 29. 35 µ g/ml µg/ml | IC50 = 49.78 µg/ml
